The results in this text go back to US20130014428A1, “METHODS OF MONITORING AND CONTROLLING THE WALNUT TWIG BEETLE, PITYOPHTHORUS JUGLANDIS” (The United States of America as Represented by the …, priority 2011, published 2013).

Assay [1] relates to walnut twig beetle (WTB), Pityophthorus juglandis. The experiment in a line: Example 1 Field Test 2: flight response to X with and without racemic conophthorin. It counts as in vivo. The settings on record: tested as a racemic mixture. As to the method:
(§1) Field Bioassays of Semiochemicals. To test the attractiveness of the various compounds of interest, some of the commercially available materials listed above were poured into 15 ml capped polyethylene bottles (Product #s A1-1050/002, A1-1055/002; Contech Enterprises Inc., Delta, British Columbia, Canada) and attached to yellow sticky card traps (Trécé, Adair, OK). In addition, synthesized (+) and (−) enantiomers of trans-conophthorin were tested in 400 μl polyethylene Eppendorf microcentrifuge tubes. Four field studies were conducted (Table 2) that tested the flight responses to: 3-methyl-2-buten-l-ol and related isomers (Field Test 1); 3-methyl-2-buten-l-ol with and without racemic trans-conophthorin (Field Test 2); 3-methyl-2-buten-l-ol with and without the purified enantiomers of trans-conophthorin (Field Test 3); and 3-methyl-2-buten-l-ol with and without racemic chalcogran (Field Test 4).
(§2) Statistical Analysis. Field Tests 1-4 were each analyzed for treatment effect by using Friedman's non-parametric analysis of variance. (See Zar, J. H. 2010. Biostatistical Analysis, 5th Ed. Pearson Prentice Hall, New Jersey). Males and females were subjected to separate analyses. All treatments within experiments yielding a significant treatment effect were compared by using an a posteriori Nemenyi test (Zar 2010) with experimentwise α=0.05. Sex ratios of responding WTB were determined using Cochran's method for unbiased sampling (See Cochran, W. G. 1977. Sampling Techniques, 3rd ed. John Wiley, New York), with 95% confidence intervals calculated by using the Clopper-Pearson method. (See Zar, J. H. 2010. Biostatistical Analysis, 5th Ed. Pearson Prentice Hall, New Jersey).

For the next assay, the system named is P. juglandis. The experiment in a line: GC-EAD (electroantennal detection) of volatile extract. Details: species or system Pityophthorus juglandis. As to conditions: extract of J. hindsii with male and female P. juglandis feeding 45 hr. Here is the method:
Gas Chromatography-Electroantennal Detection (GC-EAD). GC-EAD analysis was performed on the extract of walnut (Juglans hindsii) with male and female P. juglandis feeding for 45 hr (pentane extract (7)). The sample was analyzed with an HP5890 GC with the following conditions: DB-5 column 30 m×0.32, oven 50° C. for 1 min, temperature programmed at 20° C./min to a final temperature of 280° C.

Assay [2] concerns WTB. The experiment in a line: Example 2 Field Test 3: X and racemic trans-pityol. Type of assay: in vivo, Pityophthorus juglandis. As to the method:
Finally, a flight bioassay of the effect of the compound racemic trans-“pityol” [2-(1-hydroxy-1-methylethyl)-5-methyltetrahydrofuran] was conducted in late summer/early fall at Wolfskill Experimental Orchards. Pityol is a component of the aggregation pheromone of conifer-infesting Pityophthorus species. The response of WTB to racemic trans-pityol (formulated in a polyvinylchloride plastic bubble cap release device, 40 mg load, 0.2 mg/d release rate at 20° C., product #300000272, Contech Enterprises) and pityol in combination with 3-methyl-2-buten-1-ol (release rate 15-80 mg/d, LDPE plastic pouch Contech) was tested (Table 3, Field Test 3). The four treatments were replicated in three spatial blocks and the treatments were re-randomized among the four trap stations in a block each time the traps were emptied (nearly every day).
(§3) Statistical Analyses. Analysis of treatment effects for the pouch vs. bottle experiment was done by using a sign test. (See Zar, J. H. 2010. Biostatistical Analysis. 5th ed. Pearson Prentice Hall, Englewood Cliffs, N.J.) The other four experiments were analyzed for treatment effect by using Friedman's non-parametric analysis of variance. Id. In all experiments, males and females were analyzed separately. All treatments within experiments yielding a significant treatment effect were compared by using an a posteriori Nemenyi test with experimentwise α=0.05. Id. For all experiments, differences among proportions of female WTB responding to treatments were analyzed by comparing 95% confidence intervals determined with the Clopper-Pearson method. Id.

The test system of assay [3] is walnut twig beetle (WTB), Pityophthorus juglandis. The experiment in a line: Example 1 Field Test 3: flight response to X with and without enantiomers of trans-conophthorin. Type of assay: in vivo. The settings on record: enantiomers of Y tested separately. As to the method: as §1, §2
Assay [4] has the same test system. The assay can be described thus: Example 1 Field Test 1: flight response to X and related isomers, yellow sticky card traps. As to conditions: Davis CA; for trap catches, female WTB / trap catches, male WTB: about three months in summer, N=21. It counts as in vivo. As to the method: Field Bioassays of Semiochemicals. […] Contech Enterprises Inc., Delta, British Columbia, Canada) and attached to yellow sticky card traps ([…], OK). In addition, synthesized (+) and (-) enantiomers of trans-conophthorin were tested in 400 μl polyethylene Eppendorf microcentrifuge tubes. Four field studies were conducted (Table 2) that tested the flight responses to: 3-methyl-2-buten-l-ol and related isomers (Field Test 1); 3-methyl-2-buten-l-ol with and without racemic trans-conophthorin (Field Test 2); 3-methyl-2-buten-l-ol with and without the purified enantiomers of trans-conophthorin (Field Test 3); and 3-methyl-2-buten-l-ol with and without racemic chalcogran (Field Test 4). [table] Statistical Analysis. Field Tests 1-4 were each analyzed for treatment effect by using Friedman's non-parametric analysis of variance. (See Zar, J. H. 2010. Biostatistical Analysis, 5th Ed. Pearson Prentice Hall, New Jersey). Males and females were subjected to separate analyses. All treatments within experiments yielding a significant treatment effect were compared by using an a posteriori Nemenyi test (Zar 2010) with experimentwise α=0.05. Sex ratios of responding WTB were determined using Cochran's method for unbiased sampling (See Cochran, W. G. 1977. Sampling Techniques, 3rd ed. John Wiley, New York), with 95% confidence intervals calculated by using the Clopper-Pearson method. (See Zar, J. H. 2010. Biostatistical Analysis, 5th Ed. Pearson Prentice Hall, New Jersey).

The subject of assay [5] is WTB. The experiment in a line: Example 2 Field Test 1: X in combination with X-3 and X-2. Type of assay: in vivo, Pityophthorus juglandis. The settings on record: alone or in combination, at the release rates tested. As to the method: as §3, with “Field Bioassays of 3-methyl-2-buten-1-ol in combination with other compounds. The flight response of WTB to 3-methyl-2-buten-1-ol in combination with other compounds was also tested. […] Louis, Mo. […] The five treatments were replicated in three spatial blocks and the treatments were re-randomized among the five trap stations in a block each time the traps were emptied (nearly every day). [table] Statistical” for “Statistical”

In assay [6] the test system is walnut twig beetle (WTB), Pityophthorus juglandis. The assay can be described thus: Example 1 Field Test 4: flight response to X with and without racemic chalcogran. It counts as in vivo. Here is the method: as §1, §2
[7] abbreviates: 4-unit Lindgren funnel traps, X 15-80 mg/d, pityol 0.2 mg/d, N=93.
Where [8] appears, read: yellow sticky card traps, about one month late summer, Davis CA, N=13.

In the case of `CC1CCCC2(CCCO2)O1` (racemic) [Y, 7-methyl-1,6-dioxaspiro[4,5]decane], in assay [1], the “effect on flight response” value was “interruptive or repellent”. For the same compound, the “antennal activity by GC-EAD” value in the assay with P. juglandis is “antenally active”.

As for `CC1CCC(C(C)(C)O)O1` (racemic) [pityol, 2-(1-hydroxy-1-methylethyl)-5-methyltetrahydrofuran], the “proportion of females responding” value in the assay with WTB [2] (4-unit Lindgren funnel traps) is on record as 0.24. In the assay on WTB [2] (setting [7]), the “trap catches, female WTB” value came to 11 and the “trap catches, male WTB” value was found to be 32. For the same compound, the “effect on response to 3-methyl-2-buten-1-ol” value in the assay on WTB [2] (at the release rates tested) is “did not significantly affect the response to 3-methyl-2-buten-1-ol”.

`CC1CCCC2(CCCO2)O1` (single isomer, unassigned; (-)) [(−)-Y, (−)-trans-conophthorin]: the “effect on flight response” value in assay [3] was “behaviorally active component”.

Consider `CC(C)=CC=O` [X-1, 3-methyl-2-butenal], for which, in assay [4], the “proportion of females responding” value amounted to 0.65; the “trap catches, female WTB” value is 20; the “trap catches, male WTB” value is on record as 11.

In the case of `CC(C)CCO` [X-2, 3-methyl-1-butanol], the “effect on flight response to 3-methyl-2-buten-1-ol” value in the assay on WTB [5] is “did not significantly affect the flight response of WTB”. In assay [4], the “proportion of females responding” value came out at 0.48; the “trap catches, female WTB” value is given as 21; the “trap catches, male WTB” value amounted to 23.

Turning to `C=C(C)CCO` [X-3, 3-methyl-3-buten-1-ol], the “effect on flight response to 3-methyl-2-buten-1-ol” value in the assay with WTB [5] is “did not significantly affect the flight response of WTB”. In assay [4], the “proportion of females responding” value is given as 0.33; the “trap catches, female WTB” value is 2; the “trap catches, male WTB” value came to 4.

In the case of `CCC1CCC2(CCCO2)O1` (stereo not shown) [Z, 2-ethyl-1,6,-dioxaspiro [4,4]nonane], the “effect on flight response” value in assay [6] (tested as a racemic mixture) is given as “interruptive or repellent”. For the same compound, the “proportion of females responding” value in assay [6] (yellow sticky card traps, Davis CA) is 0.67. In assay [6] (setting [8]), the “trap catches, female WTB” value is “½” and the “trap catches, male WTB” value is given as “½”.
